# Data published in EP1022029A1, “NOOTROPIC AGENT” (priority 1997, dated 1999).
# Read-outs that look alike come from different tables or passages of the source.
# How the values were obtained:
# [1] = test system: calcium-dependent chloride currents; assay: Calcium-dependent chloride currents in Xenopus oocytes; assay type: cell-based
# Description: In atropine-free frog Ringer's solution, acetylcholine (Ach) (100 µM) was administered to an oocyte that had not expressed ACh receptors. The holding voltage was -30 mV.
# In Xenopus oocyte expression systems, ACh-evoked currents are known to be composed of ACh-gated channel currents and calcium-dependent chloride currents (R. Miledi et al., J. Physiol. 357, 173, 1984). Nefiracetam, however, had no effect on calcium-dependent chloride currents induced by stimulation from the endogenous muscarinic ACh receptors (FIG. 2).
# [2] = test system: field excitatory postsynaptic potentials (fEPSP); assay: Field excitatory postsynaptic potentials (fEPSP slope) in rat hippocampal slices, CA1; assay type: cell-based; conditions: nefiracetam 1 µM applied for 10 minutes
# Description: Long-lasting facilitation of hippocampal synaptic transmission induced by nefiracetam was investigated. The field excitatory postsynaptic potentials (fEPSP) were recorded in the pyramidal cell layer of the CA1 region by electrical stimulation to the Schaeffer collateral pathway in rat hippocampla slices. Nefiracetam (1 µM) was applied to the hippocampla slices for 10 minutes. After nefiracetam application, fEPSPs were gradually augmented. This effect was observed until 240 minutes had passed since the experiment ended (Table 18-2).
# Next, investigation was made regarding whether the above effect exerted by the present drug differs from the onset mechanism for long-term potentiation (LTP) action exerted when tetanic stimulation was used. The following three groups were compared: (group 1) tetanic stimulation alone; (group 2) nefiracetam + tetanic stimulation; (group 3) tetanic stimulation + nefiracetam. As a result, the fEPSPs that had been potentiated by nefiracetam was not potentiated any longer even when subsequent tetanic stimulation was applied. Likewise, the fEPSPs that had been potentiated by tetanic stimulation was not potentiated any longer even after subsequent application of nefiracetam. The amplitudes of potentiation of these two types of fEPSP were the same as the amplitude of tetanic stimulation. […]
# [3] = test system: glutamate release from hippocampal slices; assay type: cell-based, guinea pig
# [4] = test system: postsynaptic potential of a slice of the rat hippocampus; assay: Paired-pulse facilitation of the postsynaptic potential in hippocampal slices; assay type: cell-based; conditions: nefiracetam-administered slices; interpulse intervals 50 to 150 msec
# Description: Paired pulses were applied to slices at varying interpulse intervals, between 50 and 150 msec before and 10 minute after the administration of nefiracetam. […] Briefly, reaction induced by the first pulse application was potentiated to a maximum of 120% by the next pulse application. However, the pulses were consistently lower than those obtained with slices that had not been administered nefiracetam (Table 6); therefore, nefiracetam is considered to maximally enhance release of glutamate serving as an excitatory neurotransmitter.
# α4β2 receptor = biological target: T1, α4β2 receptor (Rattus norvegicus, UniProt P09483+P12390); assay: ACh-evoked currents in α4β2 receptors expressed in Xenopus oocytes (two-electrode voltage clamp); assay type: cell-based; conditions: for normalized response (%): nef(+), n=5
# T1 construct: expressed in transfected cells; host or cells: Xenopus oocytes injected with in vitro transcribed mRNA
# Description: Two-electrode voltage-clamp technique was used to record expression α4β2 or α7 receptors in oocytes. ACh (100 µM) was applied to a single oocyte in the presence or absence of α-BuTX (50 nM) or MCA (3 µM). The holding voltage was -30 or -60 mV for α4β2-nAChR or α7-nAChR, respectively. Downward directions correspond to inward currents.
# mRNAs for the rat α4β2 receptor and α7 receptor, GLUR1, 2, 3 receptors, and NP152 and NP153 were constructed as described previously. Xenopus oocytes were manually separated from the ovary, and subjected to treatment with collagenase (0.5 mg/ml). Thereafter, the treated oocytes were incubated overnight in Barth's solution (in mM, 88 NaCl, 1 KCl, 2.4 NaHCO3, 0.82 MgSO4, 0.33 […], 0.41 CaCl2, and 7.5 Tris; pH 7.6). The oocytes were injected with the α4β2 or α7 receptor mRNA and incubated at 18°C. In some cases, NP152 and NP153 were co-expressed with the α4β2 and α7 receptors. The injected oocytes were incubated and transferred to a recording chamber 2-7 days after incubation and continuously superfused at room temperature (20-22°C) with a standard frog Ringer's solution [in mM: 115 NaCl, 2 KCl, 1.8 CaCl2, 5 HEPES; pH 7.0]. To remove the effect of endogenous muscarinic ACh receptor, 1 µM atropine was added to the extracellular solution. ACh-evoked currents were recorded by use of two-electrode voltage clamp techniques and an amplifier (GeneClamp-500, Axon Instrument, Inc. USA). The currents were analyzed on a microcomputer by pClamp software (Axon Instrument, Inc.; Version 6). From the results, an assessment was made as to whether nefiracetam actually acts on the nACh receptors.
# T1 sequence (P09483 31-630): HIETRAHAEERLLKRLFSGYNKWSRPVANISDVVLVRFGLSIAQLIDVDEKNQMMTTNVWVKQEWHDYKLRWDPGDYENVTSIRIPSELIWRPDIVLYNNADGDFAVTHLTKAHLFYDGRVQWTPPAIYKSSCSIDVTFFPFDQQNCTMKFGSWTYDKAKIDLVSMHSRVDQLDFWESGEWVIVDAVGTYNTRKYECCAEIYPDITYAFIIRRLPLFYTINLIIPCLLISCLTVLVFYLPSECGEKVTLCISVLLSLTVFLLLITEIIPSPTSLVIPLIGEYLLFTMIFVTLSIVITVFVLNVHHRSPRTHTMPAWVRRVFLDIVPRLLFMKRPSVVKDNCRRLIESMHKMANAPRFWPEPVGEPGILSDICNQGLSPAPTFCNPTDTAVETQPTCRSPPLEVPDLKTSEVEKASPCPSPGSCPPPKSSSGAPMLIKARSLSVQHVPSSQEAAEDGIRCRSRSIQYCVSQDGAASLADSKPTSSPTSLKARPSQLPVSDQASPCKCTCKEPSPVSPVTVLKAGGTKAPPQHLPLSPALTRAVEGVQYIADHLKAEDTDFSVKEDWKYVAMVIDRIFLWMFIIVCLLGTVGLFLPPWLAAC
# T1 sequence (P12390 25-500): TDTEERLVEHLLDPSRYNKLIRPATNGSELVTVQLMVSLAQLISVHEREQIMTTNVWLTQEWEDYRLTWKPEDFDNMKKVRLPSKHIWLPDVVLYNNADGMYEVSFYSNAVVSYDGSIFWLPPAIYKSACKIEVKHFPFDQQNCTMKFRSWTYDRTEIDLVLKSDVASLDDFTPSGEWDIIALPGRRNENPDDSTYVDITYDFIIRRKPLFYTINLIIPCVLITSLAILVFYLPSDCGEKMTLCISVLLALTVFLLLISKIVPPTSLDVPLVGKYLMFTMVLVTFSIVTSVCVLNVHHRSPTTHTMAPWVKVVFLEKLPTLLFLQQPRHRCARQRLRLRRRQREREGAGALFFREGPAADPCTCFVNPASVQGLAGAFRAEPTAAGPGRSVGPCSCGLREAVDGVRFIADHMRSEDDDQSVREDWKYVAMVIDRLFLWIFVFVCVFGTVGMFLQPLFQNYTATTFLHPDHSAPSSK
compound,measurement,setting,value
"Cc1cccc(C)c1NC(=O)CN1CCCC1=O [nefiracetam, 2-oxo-1-pyrrolidinylacetic acid 2,6-dimethylanilide]",effect on calcium-dependent chloride currents induced by stimulation from the endogenous muscarinic ACh receptors (FIG. 2),"[1]; oocyte not expressing ACh receptors, atropine-free Ringer, ACh 100 µM",had no effect
same,effect on chloride ion (Cl^-) currents evoked by Ca^2+ influx through the nACh receptor channels,"[1]; oocytes, data not shown",had no effect
same,time until which augmentation of fEPSPs was observed,[2],≥ 240 min
same,effect on glutamate release,"[3]; 1 µM, depolarization by electrical stimulation",significantly increased
same,Amount of released glutamate,"[3]; St (ES+) electrical stimulation, nefiracetam 1 µM, tetrodotoxin 0.5 µM, α-bungarotoxin 50 nM, mecamylamine 3 µM",3.23 ± 0.5 (a) nmol/mg protein/10min.
same,paired-pulse facilitation: reaction to first pulse potentiated by the next pulse,[4],≤ 120%
same,concentration of maximum potentiation of ACh-evoked currents,α4β2 receptor,0.1 µM
same,activity at 1 µM,"α4β2 receptor; 1 h, nefiracetam 1 µM, 60 minutes after treatment, read-out: ACh-evoked currents potentiated, reaching",180%
same,normalized response (%),"α4β2 receptor; ACh 0.1 µM, nefiracetam 1 µM",0%
same,normalized response (%),"α4β2 receptor; ACh 1 µM, nefiracetam 1 µM",2%
same,normalized response (%),"α4β2 receptor; ACh 10 µM, nefiracetam 1 µM",36%
same,normalized response (%),"α4β2 receptor; ACh 100 µM, nefiracetam 1 µM",66%
same,normalized response (%),"α4β2 receptor; ACh 1000 µM, nefiracetam 1 µM",100%
same,activity at 0.0001 µM,"α4β2 receptor; Nefiracetam 0.0001 µM, n = 5 to 8, read-out: % of the original amplitude",100 ± 15.5%
same,activity at 0.001 µM,"α4β2 receptor; Nefiracetam 0.001 µM, n = 5 to 8, read-out: % of the original amplitude",150 ± 13.6%
same,activity at 0.01 µM,"α4β2 receptor; Nefiracetam 0.01 µM, n = 5 to 8, read-out: % of the original amplitude",212 ± 20.5%
same,activity at 0.1 µM,"α4β2 receptor; Nefiracetam 0.1 µM, n = 5 to 8, read-out: % of the original amplitude",225 ± 18.9%
same,activity at 1 µM,"α4β2 receptor; Nefiracetam 1 µM, n = 5 to 8, read-out: % of the original amplitude",161 ± 12.6%
same,activity at 10 µM,"α4β2 receptor; Nefiracetam 10 µM, n = 5 to 8, read-out: % of the original amplitude",156 ± 17.6%
same,currents potentiated to,α4β2 receptor; in the presence of the inactive PKC inhibitory peptide (NP153; iPKCI),169.3%
same,concentration at which potentiation of ACh-evoked currents was observed,α4β2 receptor; lowest effective concentration,≥ 0.0001 µM
same,% of the original amplitude (Ach-evoked current),"α4β2 receptor; treatment as labelled, nefiracetam 1 µM, GF109203X 100 nM, peptides co-expressed, Mean ± SD, n = 6 to 8",160 ± 5.6%
